Laboratory results: BindingDB's records for doi:10.1021/jm00056a003 (Universit&#224, 1993)

Biological target: L-type calcium channel (Felis catus)
Assay: Inhibition of (-)-[3H]- D-888 binding to L-type calcium channels in kitten heart ventricle membranes

COc1ccc(CCN(C)C2CCCC(C(C#N)(c3ccc(OC)c(OC)c3)C(C)C)C2)cc1OC (stereo unspecified) [(RSR) 2-(3,4-Dimethoxy-phenyl)-2-(3-{[2-(3,4-dimethoxy-phenyl)-ethyl]-methyl-amino}-cyclohexyl)-3-methyl-butyronitrile]
IC50: 260 nM
